In patent US9695155B2, “Herbicidal substituted pyrimidinyloxy benzene compounds” (E. I. DU PONT DE NEMOURS AND COMPANY, priority 2013, dated 2017):

Tests used:
[1] = test system: barnyardgrass; assay: Test A preemergence; assay type: in vivo, Echinochloa crus-galli; details: for Barnyardgrass plant response rating (0 to 100 scale, 0 is no effect, 100 is complete control): 125 g ai/ha; for Barnyardgrass plant response rating: 500 g ai/ha, 0 to 100 scale where 0 is no effect and 100 is complete control
Procedure, shortened: (§1)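 Visual 0–100 rating (100 = complete control) taken about 10 d post-treatment relative to untreated checks. Preemergence: directed soil spray on sown loam/sand pots. Postemergence: seedlings 2–10 cm, 1–2 leaf. Non-phytotoxic solvent formulation with surfactant.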

[2] = test system: pigweed; assay: Test A preemergence; assay type: in vivo, Amaranthus retroflexus; details: for Pigweed plant response rating (0 to 100 scale): 125 g ai/ha; for Pigweed plant response rating: 500 g ai/ha, 0 to 100 scale where 0 is no effect and 100 is complete control
Procedure, shortened: as §1

[3] = test system: wheat; assay: Test A preemergence; assay type: in vivo, Triticum aestivum; details: for Wheat plant response rating (0 to 100 scale): 125 g ai/ha; for Wheat plant response rating: 500 g ai/ha, 0 to 100 scale where 0 is no effect and 100 is complete control
Procedure, shortened: as §1

[4] = test system: corn; assay: Test A preemergence; assay type: in vivo, Zea mays; details: for Corn plant response rating (0 to 100 scale): 125 g ai/ha; for Corn plant response rating: 500 g ai/ha, 0 to 100 scale where 0 is no effect and 100 is complete control
Procedure, shortened: as §1

[5] = test system: barnyardgrass; assay: Test A postemergence; assay type: in vivo, Echinochloa crus-galli; details: 0 to 100 scale where 0 is no effect and 100 is complete control; for Barnyardgrass plant response rating: 125 g ai/ha; for Plant response rating, Barnyardgrass: 500 g ai/ha
Procedure, shortened: as §1

[6] = test system: giant foxtail; assay: Test A postemergence; assay type: in vivo, Setaria faberii; details: 0 to 100 scale where 0 is no effect and 100 is complete control; for Foxtail, Giant plant response rating: 125 g ai/ha; for Plant response rating, Foxtail, Giant: 500 g ai/ha
Procedure, shortened: as §1

[7] = test system: pigweed; assay: Test A postemergence; assay type: in vivo, Amaranthus retroflexus; details: 0 to 100 scale where 0 is no effect and 100 is complete control; for Pigweed plant response rating: 125 g ai/ha; for Plant response rating, Pigweed: 500 g ai/ha
Procedure, shortened: as §1

[8] = test system: wheat; assay: Test A postemergence; assay type: in vivo, Triticum aestivum; details: 0 to 100 scale where 0 is no effect and 100 is complete control; for Wheat plant response rating: 125 g ai/ha; for Plant response rating, Wheat: 500 g ai/ha
Procedure, shortened: as §1

[9] = test system: corn; assay: Test A postemergence; assay type: in vivo, Zea mays; details: 0 to 100 scale where 0 is no effect and 100 is complete control; for Corn plant response rating: 125 g ai/ha; for Plant response rating, Corn: 500 g ai/ha
Procedure, shortened: as §1

[10] = test system: rice; assay: Test B flooded paddy test; assay type: in vivo, Oryza sativa; details: Flood, 250 g ai/ha; 0 to 100 scale where 0 is no effect and 100 is complete control
Procedure, shortened: (§2)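 Plants were grown to the 2-leaf stage, then pots were flooded to 3 cm above the soil and compounds were applied directly into the paddy water. That depth was held throughout, and after 13 to 15 days in the greenhouse injury was rated visually against controls on a 0–100 scale (0 no effect, 100 complete control).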

[11] = test system: sedge, umbrella; assay: Test B flooded paddy test; assay type: in vivo, Cyperus difformis; details: Flood, 250 g ai/ha; 0 to 100 scale where 0 is no effect and 100 is complete control
Procedure, shortened: as §2

[12] = test system: Heteranthera limosa; assay: Test B flooded paddy test; assay type: in vivo; details: Flood, 250 g ai/ha; 0 to 100 scale where 0 is no effect and 100 is complete control
Procedure, shortened: as §2

[13] = test system: galium; assay: Test C postemergence; assay type: in vivo, Galium aparine; details: for Plant response rating (0 to 100), Galium: 16 g ai/ha, 0 is no effect, 100 is complete control; for Galium plant response rating: 31 g ai/ha; for Galium plant response rating / Plant response rating, Galium: scale 0 to 100 (0 no effect, 100 complete control)
Procedure, shortened: (§3)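 Preemergence: seeds sown in a loam soil–sand blend and sprayed with test chemical in a non-phytotoxic solvent mixture containing surfactant. Postemergence: plants at 2 to 18 cm (1- to 4-leaf stage) in peat-based medium, treated with the same formulation. Greenhouse 13 to 15 days, then visual rating 0 (no effect) to 100 (complete control).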

[14] = test system: pigweed; assay: Test C postemergence; assay type: in vivo, Amaranthus retroflexus; details: for Plant response rating (0 to 100), Pigweed: 16 g ai/ha, 0 is no effect, 100 is complete control; for Pigweed plant response rating: 31 g ai/ha; for Pigweed plant response rating / Plant response rating, Pigweed: scale 0 to 100 (0 no effect, 100 complete control)
Procedure, shortened: as §3

[15] = test system: barnyardgrass; assay: Test C postemergence; assay type: in vivo, Echinochloa crus-galli; details: for Plant response rating (0 to 100), Barnyardgrass: 16 g ai/ha, 0 is no effect, 100 is complete control; for Barnyardgrass plant response rating: 31 g ai/ha, 13 to 15 days; for Barnyardgrass plant response rating / Plant response rating, Barnyardgrass: scale 0 to 100 (0 no effect, 100 complete control)
Procedure, shortened: as §3

[16] = test system: kochia; assay: Test C postemergence; assay type: in vivo, Kochia scoparia; details: for Plant response rating (0 to 100), Kochia: 16 g ai/ha, 0 is no effect, 100 is complete control; for Kochia plant response rating: 31 g ai/ha; for Kochia plant response rating / Plant response rating, Kochia: scale 0 to 100 (0 no effect, 100 complete control)
Procedure, shortened: as §3

[17] = test system: velvetleaf; assay: Test C postemergence; assay type: in vivo, Abutilon theophrasti; details: for Plant response rating (0 to 100), Velvetleaf: 16 g ai/ha, 0 is no effect, 100 is complete control; for Velvetleaf plant response rating: 31 g ai/ha; for Velvetleaf plant response rating / Plant response rating, Velvetleaf: scale 0 to 100 (0 no effect, 100 complete control)
Procedure, shortened: as §3

[18] = postemergence, visual rating, 13 to 15 days
[19] = 125 g ai/ha, postemergence, visual rating
[20] = Postemergence, 62 g ai/ha, 13 to 15 days

Structure (SMILES): Fc1cnc(Oc2ccccc2-n2cc(C(F)F)cn2)nc1 [Compound 228]
- Barnyardgrass plant response rating (0 to 100 scale, 0 is no effect, 100 is complete control) [1]: 20
- Barnyardgrass plant response rating [1]: 100
- Pigweed plant response rating (0 to 100 scale) [2]: 0
- Pigweed plant response rating [2]: 0
- Wheat plant response rating (0 to 100 scale) [3]: 0
- Wheat plant response rating [3]: 0
- Corn plant response rating (0 to 100 scale) [4]: 0
- Corn plant response rating [4]: 40
- Barnyardgrass plant response rating [5]: 10
- Plant response rating, Barnyardgrass [5]: 90
- Foxtail, Giant plant response rating [6]: 50
- Plant response rating, Foxtail, Giant [6]: 90
- Pigweed plant response rating [7]: 100
- Plant response rating, Pigweed [7]: 100
- Wheat plant response rating [8]: 0
- Plant response rating, Wheat [8]: 70
- Corn plant response rating [9]: 50
- Plant response rating, Corn [9]: 10
- Plant response rating, Rice [10]: 0
- Plant response rating, Sedge, Umbrella [11]: 60
- Plant response rating, Ducksalad [12]: 75
- Plant response rating (0 to 100), Galium ([13]; postemergence): 50
- Galium plant response rating [13, 18]: 50
- Plant response rating, Galium [13, 19]: 80
- Plant response rating, Galium [13, 20]: 70
- Plant response rating (0 to 100), Pigweed ([14]; postemergence): 25
- Pigweed plant response rating [14, 18]: 50
- Plant response rating, Pigweed [14, 19]: 55
- Plant response rating, Pigweed [14, 20]: 60
- Plant response rating (0 to 100), Barnyardgrass ([15]; postemergence): 0
- Barnyardgrass plant response rating ([15]; postemergence, visual rating): 0
- Plant response rating, Barnyardgrass [15, 19]: 5
- Plant response rating, Barnyardgrass ([15]; Postemergence, 62 g ai/ha): 5
- Plant response rating (0 to 100), Kochia ([16]; postemergence): 30
- Kochia plant response rating [16, 18]: 60
- Plant response rating, Kochia [16, 19]: 85
- Plant response rating, Kochia [16, 20]: 80
- Plant response rating (0 to 100), Velvetleaf ([17]; postemergence): 15
- Velvetleaf plant response rating [17, 18]: 55
- Plant response rating, Velvetleaf [17, 19]: 70
- Plant response rating, Velvetleaf [17, 20]: 60

Structure (SMILES): FC(F)c1cnn(-c2c(Br)cccc2Oc2ncc(Cl)cn2)c1 [Compound 232]
- Barnyardgrass plant response rating (0 to 100 scale, 0 is no effect, 100 is complete control) [1]: 60
- Barnyardgrass plant response rating [1]: 100
- Pigweed plant response rating (0 to 100 scale) [2]: 100
- Pigweed plant response rating [2]: 100
- Wheat plant response rating (0 to 100 scale) [3]: 0
- Wheat plant response rating [3]: 10
- Corn plant response rating (0 to 100 scale) [4]: 0
- Corn plant response rating [4]: 60
- Barnyardgrass plant response rating [5]: 30
- Plant response rating, Barnyardgrass [5]: 90
- Foxtail, Giant plant response rating [6]: 70
- Plant response rating, Foxtail, Giant [6]: 90
- Pigweed plant response rating [7]: 100
- Plant response rating, Pigweed [7]: 100
- Wheat plant response rating [8]: 20
- Plant response rating, Wheat [8]: 50
- Corn plant response rating [9]: 30
- Plant response rating, Corn [9]: 90
- Plant response rating, Rice [10]: 35
- Plant response rating, Sedge, Umbrella [11]: 80
- Plant response rating, Ducksalad [12]: 95
- Plant response rating (0 to 100), Galium ([13]; postemergence): 65
- Galium plant response rating [13, 18]: 70
- Plant response rating, Galium [13, 19]: 95
- Plant response rating, Galium [13, 20]: 80
- Plant response rating (0 to 100), Pigweed ([14]; postemergence): 60
- Pigweed plant response rating [14, 18]: 70
- Plant response rating, Pigweed [14, 19]: 85
- Plant response rating, Pigweed [14, 20]: 60
- Plant response rating (0 to 100), Barnyardgrass ([15]; postemergence): 10
- Barnyardgrass plant response rating ([15]; postemergence, visual rating): 5
- Plant response rating, Barnyardgrass [15, 19]: 20
- Plant response rating, Barnyardgrass ([15]; Postemergence, 62 g ai/ha): 10
- Plant response rating (0 to 100), Kochia ([16]; postemergence): 85
- Kochia plant response rating [16, 18]: 85
- Plant response rating, Kochia [16, 19]: 98
- Plant response rating, Kochia [16, 20]: 90
- Plant response rating (0 to 100), Velvetleaf ([17]; postemergence): 35
- Velvetleaf plant response rating [17, 18]: 60
- Plant response rating, Velvetleaf [17, 19]: 65
- Plant response rating, Velvetleaf [17, 20]: 30
